Reference: US20160120858A1 (ACADEMIA SINICA, priority 2014, published 2016)
“Also recorded” adds a separate entry of the source.

Key:
NMDAR [1] = assay: NMDA-fEPSP extracellular recordings, hippocampal slices; assay type: cell-based, mouse; conditions: for NMDAR function (NMDA-fEPSPs) at ZnT3^−/− synapses: ZnT3^−/− hippocampal SC-CA1 synapses
Experimental: (§1) For electrophysiological experiments, sagittal hippocampal slices (400 uM thick for extracellular, 300 uM thick for intracellular recordings) of Shank2^−/− mice (or ZnT3^−/− mice) and their wild-type littermates were prepared using a vibratome (Leica VT1200) in ice-cold dissection buffer containing (in mM) 212 sucrose, 25 NaHCO3, 5 KCl, 1.25 NaH2PO4, 0.5 CaCl2, 3.5 MgSO4, 10 D-glucose, 1.25 L-ascorbic acid, and 2 Na-pyruvate bubbled with 95% 02/5% CO2. CA3 was removed to prevent epileptiform activity. Slices were restored for 1 hour in 32° C. in a normal artificial CSF (ACSF) (In units of mM: 124 NaCl, 2.5 kCl, 1 NaH2PO4, 25 NaHCO3, 10 glucose, 2 CaC12, 2 Mg504 oxidized by 95% 02/5% CO2) For the recording, a single slice was moved to and maintained in submerged-type chamber at 28° C., continuously perfused with ACSF (2 mL/minute) saturated with 95% 02/5% CO2. Stimulation and recording pipettes were pulled from borosilicate glass capillaries (Harvard Apparatus) using a micropipette electrode puller (Narishege).
For extracellular recordings, mouse hippocampal slices at the age of postnatal day 21 to 35 were used. Field excitatory postsynaptic potentials (fEPSPs) were recorded in the stratum radiatum of the hippocampal CA1 region using pipettes filled with ACSF (1 MΩ). fEPSP was amplified (Multiclamp 700B, Molecular Devices), and digitized (Digidata 1440A, Molecular
Devices) for measurements. The Schaffer collateral pathway was stimulated every 20 seconds with pipettes filled with ACSF (0.3 to 0.5 MΩ). The stimulation intensity was adjusted to yield a half-maximal response, and three successive responses were averaged and expressed relative to the normalized baseline. To induce LTP, high frequency stimulation (100 Hz, 1 s) was applied after a stable baseline was acquired. […] To isolate NMDAR-mediated fEPSPs, ACSF containing 2 mM calcium, 0.1 mM magnesium, and 6,7-dinitroquinoxaline-2,3-dione (10 uM, DNQX, Tocris), which inhibits AMPAR-mediated EPSPs, were used.

Tbr1^+/− mice = assay: Three-chamber social interaction assay, Tbr1 mice; assay type: in vivo, mouse; conditions: 30 mg/kg, 3 hours before test
Source text: All mice were backcrossed into a C57BL/6 background, and housed and bred in a mouse vivarium at the Korea Advanced Institute of Science and Technology (KAIST, Shank2^−/−mice) and at Academia Sinica (Tbr1^+/− mice). Pups were kept with the dam until weaning at postnatal day 21. After weaning, animals were group housed in mixed-genotype groups of 3 to 5 mice per cages, and randomly subjected to electrophysiological and behavioral experiments. Animals at 3 to 5 weeks of age were used for electrophysiological experiments; male animals at 2 to 4 months of age were used for behavioral assays. For TFL-Zn staining, male animals at 8 weeks (for Shank2^−/−mice) were used. Wild-type littermates were used as controls.
The injection was performed 2 hours before (Shank2^−/− mice and wild-type littermates), or 3 hours before (Tbr1^+/− mice and wild-type littermates) behavioral assays at the discretion of the facility.
Testing was conducted in dedicated behavioral test rooms during the light phase (three-chamber test) and the dark phase (repetitive behaviors and open field test).
In short, the assay consisted of three phases of 10 minutes duration: habituation, social interaction (Stranger1 vs. Object), and social novelty recognition (Stranger 1 vs. Stranger 2). Exploration was defined as each instance in which wild-type or mutant mouse tries to sniff Object/Stranger, or orients its nose towards and come close to object/stranger. Individual movement tracks were analyzed by Ethovision 10.0 (Noldus) and modified by custom-designed software MatLab (Mathworks) to generate heat maps. Time spent in exploration was analyzed by the researcher who was blinded to the subject genotype (in Shank2 mice), or by using the Smart Video Tracking System (Panlab, in Tbr1 mice). In addition to exploration time, the preference index, which represents a numerical difference between time spent exploring the targets (Stranger1 vs. Object, or Stranger 2 vs. Stranger 1) divided by total time spent exploring both targets, as described previously.

NMDAR [2] = assay: Simultaneous NMDA- and AMPA-eEPSCs at −40 mV, patch-clamp, hippocampal slices; assay type: cell-based, mouse; conditions: for NMDA-eEPSCs (NMDAR function) at −40 mV: CQ 4 uM, 20 minutes, WT and Shank2^−/− SC-CA1 synapses
Experimental: as §1
Whole-cell patch-clamp recordings of hippocampal CA1 pyramidal neurons were also made using a MultiClamp 700B amplifier (Molecular Devices) and Digidata 1440A (Molecular Devices). During whole-cell patch-clamp recordings, series resistance was monitored each sweep by measuring the peak amplitude of the capacitance currents in response to short hyperpolarizing step pulse (5 mV, 40 ms); only cells with a change in <25% were included in the analysis. For NMDA (N-Methyl-D-aspartate)/AMPA (alpha-amino-3-hydroxy-5-methylisoxazole-4-propionic acid) ratio experiments, mouse hippocampal slices at the age of postnatal day 17 to 25 were used. The recording pipettes (2.5 to 3.5 MΩ) were filled with an internal solution containing the following (in mM): 100 CsMeSO4, 10 TEA-Cl, 8 NaCl, 10 HEPES, 5 QX-314-C1, 2 Mg-ATP, 0.3 Na-GTP, 10 EGTA, with pH 7.25, 295 mOsm). CA1 pyramidal neurons were voltage-clamped at −70 mV, and EPSPs were evoked at every 15 sec. AMPAR-mediatedEPSCs were recorded at −70 mV, and 30 consecutive responses were recorded after stable baseline. After recording AMPAR-mediated EPSPs, holding potential was changed to +40 mV to record NMDA receptor-mediated EPSPs. NMDA component was measured at 60 ms after the stimulation. The NMDA/AMPA ratio was determined by dividing the mean value of 30 NMDA components of EPSPs by the mean value of 30 AMPAR-mediated EPSC peak amplitudes. […] For measuring AMPAR-mediated and NMDAR-mediated EPSCs together upon CQ treatment, pyramidal neurons were voltage-clamped at −40 mV, and EPSCs were evoked at every 15 sec. AMPAR-mediated EPSC was determined as a peak amplitude of EPSC, and NMDAR-mediated EPSC as a component at 60 ms after stimulation. NMDA/AMPA ratio at −40 mV was calculated by using both values, and monitored during the experimental process. […] Picrotoxin (100 uM) was always added to ACSF to block GABAA receptor-mediated currents.

Oc1c(I)cc(Cl)c2cccnc12 [clioquinol, 5-Chloro-7-Iodo-8-Hydroxyquinoline]
NMDAR function (NMDA-fEPSPs) in the presence of PP3 (NMDAR [1]; CQ 4 uM, 20 minutes): effectively enhances NMDAR function
NMDAR function (NMDA-fEPSPs) in the presence of Ca-EDTA (NMDAR [1]; CQ 4 uM, 20 minutes, Ca-EDTA 2 mM throughout recordings): fails to enhance NMDAR function
NMDAR function (NMDA-fEPSPs) in the presence of PP2 (NMDAR [1]; CQ 4 uM, 20 minutes, PP2 10 uM throughout recordings): fails to enhance NMDAR function
NMDAR function (NMDA-fEPSPs) in the presence of SU6656 (NMDAR [1]; CQ 4 uM, 20 minutes, SU6656 10 uM throughout recordings): fails to enhance NMDAR function
NMDAR function (NMDA-fEPSPs) in the presence of TPEN (NMDAR [1]; CQ 4 uM, 20 minutes, TPEN 25 uM throughout recordings): fails to enhance NMDAR function
Initial slopes of NMDA-fEPSPs (NMDAR [1]; Shank2^−/− SC-CA1 synapses, clioquinol for 20 minutes): ~150 % of baseline levels
NMDAR function (NMDA-fEPSPs) in the presence of cuprizone (NMDAR [1]; WT and KO slices): enhances NMDAR function
NMDAR function (NMDA-fEPSPs) (NMDAR [1]; WT and Shank2^−/− SC-CA1 synapses, 4 uM, 20 minutes): enhances NMDAR function
NMDAR function (NMDA-fEPSPs) at ZnT3^−/− synapses (NMDAR [1]): had no effect on NMDAR activity
NMDAR function (NMDA-fEPSPs) at ZnT3^−/− synapses (NMDAR [1]; listed as CQ): fails to enhance NMDAR function
Social novelty recognition (Tbr1^+/− mice; Tbr1^+/− (HT) mice): had no effect on social novelty recognition
Social novelty recognition (Tbr1^+/− mice; Tbr1^+/− (HT) mice, listed as CQ): fails to enhance social novelty recognition; also recorded: has no effect on social novelty recognition
Social novelty recognition (Tbr1^+/− mice; wild-type mice): had no effect on social novelty recognition
Social novelty recognition (Tbr1^+/− mice; wild-type mice, listed as CQ): has no effect
NMDA-eEPSCs (NMDAR function) at −40 mV (NMDAR [2]): increased NMDA-eEPSCs
NMDA-eEPSCs (NMDAR function) at −40 mV (NMDAR [2]; listed as CQ): enhances NMDAR function
AMPA-eEPSCs at −40 mV (NMDAR [2]; clioquinol treatment, WT and Shank2^−/−): not affected
NMDAR function (NMDA-eEPSCs at −40 mV) in the presence of sSrc (40-58) (NMDAR [2]; peptide 0.03 mg/mL in internal solution): effectively enhances NMDAR function
NMDAR function (NMDA-eEPSCs at −40 mV) in the presence of Src (40-58) (NMDAR [2]; peptide 0.03 mg/mL in internal solution, Shank2^−/− SC-CA1 synapses): fails to enhance NMDAR function
